Experiment [1] deals with T1, endothelin A receptor (ETAR) (Homo sapiens, UniProt P25101).
T1 construct: gene EDNRA
T1 sequence (P25101 21-427): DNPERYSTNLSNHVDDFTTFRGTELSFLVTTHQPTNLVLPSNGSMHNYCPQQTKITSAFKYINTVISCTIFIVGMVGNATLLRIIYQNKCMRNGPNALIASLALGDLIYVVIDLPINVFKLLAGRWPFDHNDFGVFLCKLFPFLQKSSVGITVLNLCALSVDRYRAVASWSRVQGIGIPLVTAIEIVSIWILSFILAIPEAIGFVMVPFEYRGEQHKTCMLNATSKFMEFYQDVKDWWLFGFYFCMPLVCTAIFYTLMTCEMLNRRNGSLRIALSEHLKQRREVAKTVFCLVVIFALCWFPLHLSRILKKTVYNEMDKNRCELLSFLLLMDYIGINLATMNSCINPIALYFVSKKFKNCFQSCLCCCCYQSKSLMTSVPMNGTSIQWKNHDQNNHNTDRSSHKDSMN
Nature of the experiment: Calcium mobilization (Fluo-4) antagonist assay in HEK293/ETAR cells evoked by […] ET-1; selective over ETB, A1, AT1 and PAR1 cell lines. Format: cell-based. (In general: Calcium assays in cells follow changes in intracellular calcium, usually with a dye or a luminescent sensor.)

Experiment [2] concerns the target T2, proteinase-activated receptor 1 (PAR1) (Homo sapiens, UniProt P25116).
T2 construct: gene F2R; stably expressed in HEK293
T2 sequence (P25116 1-425): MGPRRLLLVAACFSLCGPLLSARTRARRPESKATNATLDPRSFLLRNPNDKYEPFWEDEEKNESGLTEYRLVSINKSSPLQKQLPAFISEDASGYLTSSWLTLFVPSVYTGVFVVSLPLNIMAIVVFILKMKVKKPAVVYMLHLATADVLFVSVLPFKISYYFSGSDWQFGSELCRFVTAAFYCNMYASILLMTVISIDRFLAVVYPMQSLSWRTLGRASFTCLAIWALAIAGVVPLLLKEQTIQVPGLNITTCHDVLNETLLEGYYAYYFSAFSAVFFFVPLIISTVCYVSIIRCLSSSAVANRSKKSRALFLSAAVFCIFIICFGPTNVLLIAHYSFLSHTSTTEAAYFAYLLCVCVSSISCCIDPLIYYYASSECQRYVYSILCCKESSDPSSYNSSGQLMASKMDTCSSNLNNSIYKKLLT
In words: cell-based. Also noted: species or system HEK293; calcium mobilization assay in HEK293 cells stably expressing the human GPCR, agonist response. As to the method:
To acquire the antagonist dose response, we tested the inhibitory effects of Sal A at different concentrations in the HEK293/ETAR cell line with 20 nM ET-1 stimulating. […] To omit a potential false positive, the cytotoxicity was tested in the HEK293/ETAR cell line by ATP CellTiter-Glo assay. In brief, Sal A was incubated in HEK293/ETAR cells for 30 min before luminescence signal measurement. […] The selectivity of Sal A was further assessed by calcium influx assay on 5 GPCRs. […] All cell lines were developed by standard procedures. Sal A was tested at a final concentration of 10 µM when cells were challenged with their selective agonists for antagonist identification. The selective antagonists of specific cell lines were used as positive control (Table S1). The HEK293 cell line was set up as the naïve group, and cells were challenged with 10 µM ATP as an agonist. […] The Gαq pathway is involved in ETAR activation, which increases intracellular Ca^2+. Based on this characteristic, a cell-based calcium mobilization assay has been used to study the function of GPCR and Ca^2+-permeable ion channels by measuring the changes of intracellular free Ca^2+ levels. In our previous study, recombinant ETAR in HEK293 cells was developed according to standard procedures. The utility of the cell line was validated using ETAR agonist (ET-1) and antagonist (BQ-123). […]

In experiment [3] the target is T1, endothelin A receptor (ETAR). Nature of the experiment: Calcium mobilization antagonist assay in HEK293/ETAR cells evoked by […] ET-1 (cell line validation). Format: cell-based.

The structures appear in SMILES notation. Where a SMILES comes first, the peptide text is derived from it. [ ]: non-standard residue; d: D form.

As usually defined, the IC50 is the point on the concentration scale where inhibition reaches its midpoint. Regarding `O=C(/C=C/c1ccc(O)c(O)c1/C=C/c1ccc(O)c(O)c1)O[C@H](Cc1ccc(O)c(O)c1)C(=O)O` [Sal A, Salvianolic acid A], in experiment [1], the half-inhibitory concentration (IC50) is 5700 nM.
For orientation: EC50 means the concentration that produces a half-maximal response. Consider `CC(C)C[C@H](NC(=O)[C@H](CC(C)C)NC(=O)[C@H](Cc1ccccc1)NC(=O)[C@@H](N)CO)C(=O)N[C@@H](CCCN=C(N)N)C(=O)N[C@@H](CC(N)=O)C(=O)O` [TRAP-6], for which the EC50 in experiment [2] stood at 890 nM.
For `CC(C)C[C@@H]1NC(=O)[C@@H](C(C)C)NC(=O)[C@@H]2CCCN2C(=O)[C@@H](CC(=O)O)NC(=O)[C@@H](Cc2c[nH]c3ccccc23)NC1=O` [BQ-123] (cyclo(L[dW][dD]P[dV])), the IC50 in experiment [3] was found to be 0.1 nM.

The values above are taken from PMC5000642 (International Journal of Molecular Sciences, 2016).
